# Compound: O=C(NC1CCNCC1)c1n[nH]cc1NC(=O)c1c(Cl)cccc1Cl [AT-7519] + CS(=O)(=O)N1CCN(Cc2cc3nc(-c4cccc5[nH]ncc45)nc(N4CCOCC4)c3s2)CC1 [Pictilisib] (partner 1 µM)
# Assay: relative viability (nuclei count vs DMSO), 5 days (fraction); higher = more cells survive
# Details: first compound 0.01 µM
# In short: (§1)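 Lung cancer cell lines in 1536-well plates got either a single drug or a fixed anchor-drug dose together with five library-drug doses (not always all listed) in √10 steps, by pin tool, on the day after seeding. Nuclei were counted after 5 days, and relative viability is the treated-to-vehicle ratio of nuclei counts. Values are medians of duplicate plates.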
row,Cell Line,relative viability
1,NCI-H1792,0.196
2,NCI-H1355,0.462
3,NCI-H3122,0.625
4,NCI-H1437,0.471
5,NCI-H1755,0.444
6,HCC-15,0.766
7,NCI-H1793,0.357
8,PC-14,0.66
9,EKVX,0.449
10,LC-2-ad,0.653
11,NCI-H1944,0.356
12,NCI-H1975,0.293
13,RERF-LC-KJ,0.514
14,ABC-1,0.837
15,NCI-H358,0.294
16,NCI-H650,0.868
17,PC-3 [JPC-3],0.779

# Same assay, conditions: first compound 0.03162 µM
row,Cell Line,relative viability
1,NCI-H1792,0.218
2,NCI-H1355,0.388
3,NCI-H3122,0.603
4,NCI-H1437,0.392
5,NCI-H1755,0.379
6,HCC-15,0.764
7,NCI-H1793,0.255
8,PC-14,0.59
9,EKVX,0.385
10,LC-2-ad,0.366
11,NCI-H1944,0.334
12,NCI-H1975,0.253
13,RERF-LC-KJ,0.452
14,ABC-1,0.688
15,NCI-H358,0.308
16,NCI-H650,0.851
17,PC-3 [JPC-3],0.751

# Same assay, conditions: first compound 0.3162 µM
row,Cell Line,relative viability
1,NCI-H1792,0.234
2,NCI-H1355,0.475
3,NCI-H3122,0.645
4,NCI-H1437,0.29
5,NCI-H1755,0.346
6,HCC-15,0.59
7,NCI-H1793,0.31
8,PC-14,0.521
9,EKVX,0.393
10,LC-2-ad,0.386
11,NCI-H1944,0.323
12,NCI-H1975,0.231
13,RERF-LC-KJ,0.594
14,ABC-1,0.527
15,NCI-H358,0.239
16,NCI-H650,0.84
17,PC-3 [JPC-3],0.688

# Same assay, conditions: first compound 1 µM
row,Cell Line,relative viability
1,NCI-H1792,0.252
2,NCI-H1355,0.35
3,NCI-H3122,0.102
4,NCI-H1437,0.133
5,NCI-H1755,0.297
6,HCC-15,0.323
7,NCI-H1793,0.161
8,PC-14,0.258
9,EKVX,0.346
10,LC-2-ad,0.158
11,NCI-H1944,0.339
12,NCI-H1975,0.146
13,RERF-LC-KJ,0.136
14,ABC-1,0.202
15,NCI-H358,0.212
16,NCI-H650,0.672
17,PC-3 [JPC-3],0.694

# Compound: C1=CC2=C(C=C(C(=C2N=C1)O)N=NC3=CC4=C(C=C3)C=C(C=C4)S(=O)(=O)O)S(=O)(=O)O + O=C(c1cc(Cc2n[nH]c(=O)c3ccccc23)ccc1F)N1CCN(C(=O)C2CC2)CC1 [Olaparib] (partner 8 µM)
# Assay: as above
# Details: first compound 0.08 µM
# In short: as §1
row,Cell Line,relative viability
1,NCI-H1792,0.579
2,NCI-H1355,0.736
3,NCI-H3122,0.643
4,NCI-H1437,0.617
5,NCI-H1755,0.913
6,HCC-15,0.879
7,NCI-H1793,1
8,PC-14,0.249
9,EKVX,1.02
10,LC-2-ad,0.72
11,NCI-H1944,0.407
12,NCI-H1975,0.868
13,RERF-LC-KJ,0.889
14,ABC-1,0.634
15,NCI-H358,0.656
16,NCI-H650,0.458
17,PC-3 [JPC-3],1.31

# Same assay, conditions: first compound 0.253 µM
row,Cell Line,relative viability
1,NCI-H1792,0.253
2,NCI-H1355,0.717
3,NCI-H3122,0.623
4,NCI-H1437,0.611
5,NCI-H1755,0.864
6,HCC-15,0.682
7,NCI-H1793,0.762
8,PC-14,0.275
9,EKVX,0.77
10,LC-2-ad,0.671
11,NCI-H1944,0.402
12,NCI-H1975,0.854
13,RERF-LC-KJ,0.964
14,ABC-1,0.762
15,NCI-H358,0.555
16,NCI-H650,0.404
17,PC-3 [JPC-3],1.15

# Same assay, conditions: first compound 0.8 µM
row,Cell Line,relative viability
1,NCI-H1792,0.355
2,NCI-H1355,0.748
3,NCI-H3122,0.561
4,NCI-H1437,0.655
5,NCI-H1755,0.831
6,HCC-15,0.714
7,NCI-H1793,0.883
8,PC-14,0.29
9,EKVX,0.904
10,LC-2-ad,0.749
11,NCI-H1944,0.426
12,NCI-H1975,0.772
13,RERF-LC-KJ,0.987
14,ABC-1,0.754
15,NCI-H358,0.551
16,NCI-H650,0.386
17,PC-3 [JPC-3],1.17

# Same assay, conditions: first compound 2.53 µM
row,Cell Line,relative viability
1,NCI-H1792,0.507
2,NCI-H1355,0.728
3,NCI-H3122,0.644
4,NCI-H1437,0.638
5,NCI-H1755,0.964
6,HCC-15,0.698
7,NCI-H1793,0.952
8,PC-14,0.272
9,EKVX,0.822
10,LC-2-ad,0.683
11,NCI-H1944,0.416
12,NCI-H1975,0.795
13,RERF-LC-KJ,0.959
14,ABC-1,0.684
15,NCI-H358,0.57
16,NCI-H650,0.384
17,PC-3 [JPC-3],1.14

# Same assay, conditions: first compound 8 µM
row,Cell Line,relative viability
1,NCI-H1792,0.432
2,NCI-H1355,0.711
3,NCI-H3122,0.584
4,NCI-H1437,0.613
5,NCI-H1755,0.874
6,HCC-15,0.727
7,NCI-H1793,0.891
8,PC-14,0.246
9,EKVX,0.955
10,LC-2-ad,0.744
11,NCI-H1944,0.33
12,NCI-H1975,0.824
13,RERF-LC-KJ,1.02
14,ABC-1,0.916
15,NCI-H358,0.569
16,NCI-H650,0.402
17,PC-3 [JPC-3],1.09

# Compound: O=C(NC1CCNCC1)c1n[nH]cc1NC(=O)c1c(Cl)cccc1Cl [AT-7519] + Nc1ncn([C@H]2C[C@H](O)[C@@H](CO)O2)c(=O)n1 [Decitabine] (partner 2 µM)
# Assay: as above
# Details: first compound 0.01 µM
# In short: as §1
row,Cell Line,relative viability
1,NCI-H1792,0.405
2,NCI-H1355,0.347
3,NCI-H3122,0.508
4,NCI-H1437,0.527
5,NCI-H1755,0.724
6,HCC-15,0.59
7,NCI-H1793,0.517
8,PC-14,0.264
9,EKVX,0.331
10,LC-2-ad,0.789
11,NCI-H1944,0.443
12,NCI-H1975,0.398
13,RERF-LC-KJ,0.738
14,ABC-1,1.22
15,NCI-H358,0.202
16,NCI-H650,0.387
17,PC-3 [JPC-3],0.802

# Same assay, conditions: first compound 0.03162 µM
row,Cell Line,relative viability
1,NCI-H1792,0.488
2,NCI-H1355,0.347
3,NCI-H3122,0.484
4,NCI-H1437,0.59
5,NCI-H1755,0.721
6,HCC-15,0.567
7,NCI-H1793,0.551
8,PC-14,0.205
9,EKVX,0.303
10,LC-2-ad,0.765
11,NCI-H1944,0.415
12,NCI-H1975,0.371
13,RERF-LC-KJ,0.701
14,ABC-1,1.08
15,NCI-H358,0.193
16,NCI-H650,0.281
17,PC-3 [JPC-3],0.815

# Same assay, conditions: first compound 0.3162 µM
row,Cell Line,relative viability
1,NCI-H1792,0.495
2,NCI-H1355,0.359
3,NCI-H3122,0.511
4,NCI-H1437,0.548
5,NCI-H1755,0.825
6,HCC-15,0.498
7,NCI-H1793,0.449
8,PC-14,0.189
9,EKVX,0.57
10,LC-2-ad,0.838
11,NCI-H1944,0.434
12,NCI-H1975,0.252
13,RERF-LC-KJ,0.452
14,ABC-1,0.859
15,NCI-H358,0.198
16,NCI-H650,0.335
17,PC-3 [JPC-3],0.726

# Same assay, conditions: first compound 1 µM
row,Cell Line,relative viability
1,NCI-H1792,0.54
2,NCI-H1355,0.331
3,NCI-H3122,0.193
4,NCI-H1437,0.347
5,NCI-H1755,0.716
6,HCC-15,0.441
7,NCI-H1793,0.378
8,PC-14,0.0859
9,EKVX,0.463
10,LC-2-ad,0.737
11,NCI-H1944,0.344
12,NCI-H1975,0.271
13,RERF-LC-KJ,0.229
14,ABC-1,0.926
15,NCI-H358,0.112
16,NCI-H650,0.274
17,PC-3 [JPC-3],0.756

# Compound: O=C(NC1CCNCC1)c1n[nH]cc1NC(=O)c1c(Cl)cccc1Cl [AT-7519] + NC(=O)Nc1cc(-c2cccc(F)c2)sc1C(=O)N[C@H]1CCCNC1 [AZD7762] (partner 0.2 µM)
# Assay: as above
# Details: first compound 0.01 µM
# In short: as §1
row,Cell Line,relative viability
1,NCI-H1792,0.759
2,NCI-H1355,0.71
3,NCI-H3122,1.01
4,NCI-H1437,0.989
5,NCI-H1755,0.427
6,HCC-15,1.18
7,NCI-H1793,0.578
8,PC-14,0.416
9,EKVX,0.798
10,LC-2-ad,0.77
11,NCI-H1944,0.528
12,NCI-H1975,0.691
13,RERF-LC-KJ,0.87
14,ABC-1,0.922
15,NCI-H358,0.423
16,NCI-H650,1.07
17,PC-3 [JPC-3],0.908

# Same assay, conditions: first compound 0.03162 µM
row,Cell Line,relative viability
1,NCI-H1792,0.554
2,NCI-H1355,0.703
3,NCI-H3122,1.11
4,NCI-H1437,1.09
5,NCI-H1755,0.461
6,HCC-15,1.37
7,NCI-H1793,0.573
8,PC-14,0.261
9,EKVX,0.608
10,LC-2-ad,0.844
11,NCI-H1944,0.472
12,NCI-H1975,0.744
13,RERF-LC-KJ,0.698
14,ABC-1,0.782
15,NCI-H358,0.558
16,NCI-H650,0.953
17,PC-3 [JPC-3],0.844

# Same assay, conditions: first compound 0.3162 µM
row,Cell Line,relative viability
1,NCI-H1792,0.571
2,NCI-H1355,0.902
3,NCI-H3122,1.02
4,NCI-H1437,1.07
5,NCI-H1755,0.629
6,HCC-15,1.17
7,NCI-H1793,0.409
8,PC-14,0.38
9,EKVX,0.822
10,LC-2-ad,0.826
11,NCI-H1944,0.699
12,NCI-H1975,0.76
13,RERF-LC-KJ,1.18
14,ABC-1,0.952
15,NCI-H358,0.521
16,NCI-H650,0.887
17,PC-3 [JPC-3],0.671

# Same assay, conditions: first compound 1 µM
row,Cell Line,relative viability
1,NCI-H1792,0.467
2,NCI-H1355,0.907
3,NCI-H3122,0.752
4,NCI-H1437,0.982
5,NCI-H1755,0.428
6,HCC-15,1.14
7,NCI-H1793,0.543
8,PC-14,0.44
9,EKVX,0.719
10,LC-2-ad,0.945
11,NCI-H1944,0.479
12,NCI-H1975,0.638
13,RERF-LC-KJ,1.03
14,ABC-1,0.907
15,NCI-H358,0.37
16,NCI-H650,1.29
17,PC-3 [JPC-3],0.992
